From patent publication US6017932A, “Pharmaceutical compositions containing at least one NSAID having increased bioavailability” (priority 1996, dated 2000)
Entries after “also recorded” stand apart in the source; their conditions may differ. Where two headings read alike, the source gives them in different places.

Assays:
[1] = cited from earlier work
[2] = system: histamine release, neutrophil myeloperoxidase pathway, bradykinin activity, phosphodiesterase type IV and others; settings: in words; cited from earlier work
[3] = cited from earlier work; for effect of Piperine on bio-availability (in words): with Piperine; for mean increase in AUC: formulations with Piperine vs without
COX-II = settings: vs COX-I; cited from earlier work
[4] = Plasma levels of Nimesulide in rats after composition with/without Piperine (Experiment I); type: in vivo, albino rats
Experimental: The rats were housed 5 per cage with food and water provided ad libidum.
On the day of experimentation the rats were randomised into ten batches of 5 rats each. Four groups were formed. Group I consisted of one batch of 5 rats, which was kept as control which received no drug treatment. Group II consisted of four batches of five rats each. […] Rats of batch I from Group II were sacrificed 60 minutes post treatment after Chloroform anaesthesia. Batch 2,3 and 4 were similarly sacrificed at 120 min., 240 min. and 360 min. post treatment respectively. Blood was collected from the rats from the ventricle into heparinised tubes.
Group III consisted of one batch of 5 rats, which received only Piperine at a dose level of 1.0 mg/kg body wt. The animals were sacrificed 160 minutes post treatment after Chloroform anaesthesia. Blood was collected from the rats from the ventricle into heparinised tubes.
Group IV consisted of 4 batches of 5 rats each. […] Rats of batch 1 from Group IV were sacrificed 60 minutes post treatment after Chloroform anaesthesia. Batch 2, 3 and 4 were similarly sacrificed at 120 min., 240 min. and 360 min. post treatment respectively. Blood was collected from the rats from the ventricle into heparinised tubes.
The blood samples were centrifuged at 3700 rpm and the plasma separated. To 1 ml plasma 0.5 ml of HCl was added and then extracted with 2 ml of benzene. Extracted benzene was evaporated in a water bath at 95° C. and reconstituted with 100 μl of mobile phase and 10 μl was injected into the HPLC.
Waters HPLC fitted with C8 μ Bondapack was used along with Waters UV-Vis detector (254 nm). Acetonitrile 50% with 50% Ammonium di-hydrogen Phosphate (0.01M) in double distilled, filtered (0.22 μ) water was used as the mobile phase.
Unpaired student T test was applied on the data. Level of significance was fixed at p<0.05.

[5] = cited from earlier work; remark: listed apart in the source
[6] = relative to other NSAIDs; cited from earlier work
[7] = system: renal prostaglandin synthesis; settings: rats; cited from earlier work
in vivo = settings: rat, plasma, po, 10 mg/kg
Experimental: The single test point pharmacokinetic studies were performed in two groups of rats. […] Rats were sacrificed at 90 minutes. post treatment and blood samples were analysed by HPLC.

[8] = rectal, nimesulide 100 and 200 mg; cited from earlier work
plasma proteins = settings: human; cited from earlier work
yeast-induced fever = settings: rats with yeast-induced fever; cited from earlier work
[9] = system: painful inflammatory conditions; settings: cited from earlier work
[10] = in words; cited from earlier work
[11] = oral, 50 to 200 mg nimesulide, healthy adult volunteers

CS(=O)(=O)Nc1ccc([N+](=O)[O-])cc1Oc1ccc(O)cc1 [4-hydroxy-nimesulide]
accumulation ([1]; patients with moderate renal impairment): Slight accumulation | other effects [2]: appears to contribute to the anti-inflammatory activity

CC[C@@H](CO)NCCN[C@@H](CC)CO [Ethambutol]
effect of Piperine on bio-availability (in words) [3]: increase bio-availability

NNC(=O)c1ccncc1 [Isoniazid]
mean increase in AUC [3]: 131%

COc1ccc2cc(CCC(C)=O)ccc2c1 [Nabumetone]
COX-II selectivity (in words) (COX-II): selectively inhibit the detrimental COX-II

CS(=O)(=O)Nc1ccc([N+](=O)[O-])cc1Oc1ccccc1 [Nimesulide, N-(4-nitro, 2-phenoxyphenyl) methanesulfonamide]
Concentration of the drug in plasma ([4]; 240 min, Nimesulide alone 1.8 mg/kg): 4.6 ± 1.4 kg/mL | concentration at 1 h ([4]; rat, plasma, po, 1.8 mg/kg): 5800 ± 1700 µg/mL | concentration at 2 h ([4]; rat, plasma, po, 1.8 mg/kg): 7900 ± 2300 µg/mL | concentration at 4 h ([4]; rat, plasma, po, 1.8 mg/kg): 4600 ± 1400 µg/mL | concentration at 6 h ([4]; rat, plasma, po, 1.8 mg/kg): 2200 ± 1100 µg/mL | effect of food on absorption ([5]; concomitant administration of food): may decrease the rate, but not the extent, of absorption | apparent volume of distribution ([5]; following oral administration): 0.19 to 0.35 L/kg | dose excreted unchanged in the urine ([5]; human, in vivo, po): 1 to 3% | biotransformation ([5]; in words): almost completely biotransformed into 4-hydroxy-nimesulide | oral drug absorption ([5]; in words): nearly complete | peak serum concentrations [5, 11]: 1.98 to 9.85 mg/L | time to peak serum concentration [5, 11]: 1.22 to 3.17 h | elimination half-life ([5]; parent compound): 1.56 to 4.95 h | ulcerogenicity / gastric tolerance [6]: less ulcerogenic than aspirin, indomethacin, naproxen, piroxicam and ibuprofen; also recorded: better gastric tolerance than other commonly used NSAIDs | effect on renal prostaglandin synthesis [7]: little effect on renal prostaglandin synthesis in rats | pharmacokinetic profile in special populations ([1]; children, elderly volunteers, moderately impaired renal function (creatinine clearance 1.8 to 4.8 L/h)): not significantly altered | other effects [2]: appears to exert its effects on histamine release, the neutrophil myeloperoxidase pathway, bradykinin activity, tumour necrosis factor-a release, cartilage degradation, metalloprotease synthesis, phosphodiesterase type IV inhibition, platelet aggregation and synthesis of platelet activating factor | concentration at 1.5 h (in vivo): 8820 µg/mL | peak serum concentrations [8]: 2.14 to 2.32 mg/L | time to peak serum concentration [8]: 3 to 4.58 h | bound to plasma proteins (plasma proteins): 99% | antipyretic potency (yeast-induced fever): superior antipyretic potency to indomethacin, ibuprofen, aspirin and paracetamol (acetaminophen) | onset of analgesia ([9]; human, in vivo): rapid onset of analgesia | efficacy in cancer pain ([9]; in words): highly efficaceous in cancer pain | clinical efficacy vs placebo ([9]; oral mostly 200 mg/day or rectal 400 mg/day): more effective than placebo | clinical efficacy vs other NSAIDs ([9]; vs piroxicam, ketoprofen, naproxen, etodolac, mefenamic acid, diclofenac and others): at least as effective as therapeutic dosages of other NSAIDs

O=C(/C=C/C=C/c1ccc2c(c1)OCO2)N1CCCCC1 [Piperine, (E, E) 1-[5-(1,3-benzodioxyl-5-yl)-1-oxo-2,4-pentadenyl] piperidine]
Plasma levels of Nimesulide ([4]; 120 min. post treatment, Nimesulide 1.8 mg/kg with or without Piperine 1.0 mg/kg, oral, rats): Nil | solubility / insolubility [10]: soluble in benzene, chloroform, ether, ethyl acetate, dichloromethane, alcohol, acetic acid and insoluble in water, pet. ether

NC(=O)c1cnccn1 [Pyrazinamide]
mean increase in AUC [3]: 36%

CO[C@H]1/C=C/O[C@@]2(C)Oc3c(C)c(O)c4c(O)c(c(/C=N/N5CCN(C)CC5)c(O)c4c3C2=O)NC(=O)/C(C)=C\C=C\[C@H](C)[C@H](O)[C@@H](C)[C@@H](O)[C@@H](C)[C@H](OC(C)=O)[C@@H]1C [Rifampicin]
mean increase in AUC [3]: 37.6%

CCCCNC(=O)NS(=O)(=O)c1ccc(C)cc1 [tolbutamide]
effect of Piperine on bio-availability (in words) [3]: no effect on enhancing the bio-availability
